Experiments:
Format in all cases: cell-based, human
cleaved Cas-3 = test: Western blotting in Caco-2 cells; details: Caco-2, IC50 dose, 24 h, normalized to β-actin
Procedure: (§1) The expression of Bax, Bcl-2, Cyt-C, cleaved cas-3 and p53 proteins in Caco-2 cells was determined using Western blot procedure according to the methods mentioned previously. […] Then, cells were lysed in 150 µL pre-cold lysis buffer [Tris-Base “10 mM”, NaCl “100 mM”, Ethylene glycol bis (2-aminoethyl) tetraacetic acid (EGTA) “20 mM”, ethylenediaminetetraacetic acid (EDTA) “25 mM”, 1% (v/v) NP-40, and 1% (v/v) Triton X-100; pH 7.4] immediately supplemented with 1:450 protease and phosphatase inhibitors cocktail (Sigma-Aldrich). Caco-2 cells were immediately collected by cell scraper, sonicated, and centrifuged at 12,000 rpm for 15 min. Total proteins in the produced supernatant were determined colorimetrically using the Pierce™ 660 nm Assay (Thermo Scientific, Rockford, IL, USA). Equal amounts (30 µg) of protein were mixed with sodium dodecyl sulfate (SDS)-loading buffer containing Tris-HCl, dithiothreitol (DTT), SDS, glycerol, and Bromophenol blue. The protein samples were then denatured by boiling for 5 min, allowed to cool on ice for 10 min and separated by SDS-polyacrylamide gel electrophoresis (Cleaver Scientific Ltd., Rugby, Warwickshire, UK), and transferred onto Polyvinylidene Difluoride (PVDF) membranes for 30 min using Trans-Blot® SD semi-dry transfer cell (Biorad). Membranes were then blocked with 5% (w/v) blotting-grade dry milk (Biorad) in Tris-buffered saline-Tween-20 (TBS-T), washed and incubated with antibodies against Bax, Bcl-2, cleaved caspase-3 (1:100–1:2000, Cell Signaling Technology), cytochrome c (1:500, Santa Cruz Biotechnology), p53 (1:1500, Abcam) and β-actin (1:2500, Sigma-Aldrich) for 16–17 h at 4 °C in a humidified chamber. The blots were washed, incubated at RT with matched horseradish peroxidase (HRP)-linked secondary antibodies (Dako, Denmark) for 1.5 h, and the bands were visualized with chemiluminescence Western Lightning ECL (Perkin Elmer, Waltham, MA) for 1 min in Chemi-Doc imager (Biorad, Hercules, CA, USA) and finally analyzed with Bio-Rad Image Lab software with normalization to β-actin.

Cytochrome-C = test: Immunocytochemistry of cytosolic Cyt-C in Caco-2 cells; details: Caco-2, IC50, 24 h, compared to 0.1% DMSO control
Procedure: Caco-2 cells were seeded onto coverslips at a density of 1 × 10^6 cells using 0.1 mg/mL Poly-L-Lysine (Sigma-Aldrich, St. Louis, MO, USA) for immunocytochemistry (ICC) analysis. After treatment with IC50 of retinoids, cells were fixed in formalin neutral buffer (FNB) solution. The fixed cells were permeabilized with 0.1% Triton-x 100 and then blocked in 1% bovine serum albumin (BSA, prepared in PBS containing 0.1% Tween 20) for 30 min. Then, cells were incubated with Alexa Fluor® 488-conjugated anti-cytochrome C antibody overnight. After incubation, nuclei of cells were stained with Hoechst 33,258 (Sigma-Aldrich, St. Louis, MO, USA, 1:500). The coverslips were mounted in anti-fading medium (0.1% p-phenylenediamine, dissolved in 90% glycerin/PBS) and cytochrome C protein expression was detected using Carl Zeiss LSM 710 confocal microscope.

p53 = test: Western blotting in Caco-2 cells; details: Caco-2, IC50 dose, 24 h, normalized to β-actin
Procedure: as §1

Cyt-C = test: Western blotting in Caco-2 cells; details: Caco-2, IC50 dose, 24 h, normalized to β-actin
Procedure: as §1

Structure (SMILES) | activated (cleaved) Cas-3 protein level (cleaved Cas-3) | cytosolic Cyt-C protein released (anti-Cyt-C fluorescence intensity) (Cytochrome-C) | p53 protein level (p53) | Cyt-C protein level (Cyt-C)
CC1=C(/C=C/C(C)=C/C=C/C(C)=C/C(=O)O)C(C)(C)CCC1 [ATRA, All-trans retinoic acid, reference compound] | increment in the level of activated Cas-3 | – | – | –
CC1(C)CCC(C)(C)c2cc(C#Cc3cccc(C(=O)O)c3)ccc21 [EC19, 3-(5,5,8,8-tetramethyl-5,6,7,8-tetrahydronaphthalen-2-ylethynyl) benzoic acid] | increment in the level of activated Cas-3 | significant increase | significantly increased | significantly increased
CC1(C)CCC(C)(C)c2cc(C#Cc3ccc(C(=O)O)cc3)ccc21 [EC23, 4-(5,5,8,8-tetramethyl-5,6,7,8-tetrahydronaphthalen-2-ylethynyl) benzoic acid] | – | second rank | – | –

— PMC7835894 (Molecules, 2021)
